Data: patent US9006253B2, “Crystal of 2-(3,4-dichlorobenzyl)-5-methyl-4-oxo-3,4-dihydrothieno[2,3-D]pyrimidine-6-carboxylic acid” (ASKA Pharmaceutical Co., Ltd., priority 2010, dated 2015)
≈ marks a conversion by molar mass, not a printed value. Where two headings read alike, the source gives them in different places.

Columns and labels:
PDE9 = PDE9 (Homo sapiens, UniProt O76083); details: as described in WO 2006/135080; cited from earlier work
PDE5 = PDE5 (Homo sapiens, UniProt O76074); details: as described in WO 2006/135080; cited from earlier work
[1] = Thermal stability (decomposition product by HPLC, colour after heating); assay type: physicochemical; details: 6 hr; for amount of the decomposition product (decarboxylation substance of compound A): HPLC
Experimental: Form I crystal obtained in Example 1 and Form II crystal obtained in Example 2 and amorphous compound A obtained in Production Example 1 were heated at 100° C. for 6 hr or 200° C. for 6 hr, and the amount of the decomposition product 2-(3,4-dichlorobenzyl)-5-methyl-4-oxo-3,4-dihydrothieno[2,3-d]pyrimidine (decarboxylation substance of compound A) was measured by HPLC. In the HPLC measurement, the sample was suspended in a mobile phase, dissolved by adding 1 equivalent of aqueous sodium hydroxide and then applied.
HPLC Measurement Condition measuring apparatus: Waters Alliance HPLC system detector: ultraviolet absorption spectrophotometer (measurement wavelength 225 nm) column: XBridge C18 (Waters) column temperature: constant temperature near 30° C. mobile phase A: acetonitrile mobile phase B: 5 mmol/L ammonium hydrogen carbonate (pH 8.0) gradient method of mobile phase A and mobile phase B: mobile phase A 23% (0 to 15 min), mobile phase A 23%→55% (15 to 30 min), mobile phase A 55% (30 to 50 min)

[2] = Solubility in 0.5% aqueous Tween80 solution at 37° C.; assay type: physicochemical; details: for time at which near saturation was reached: stirring; for solubility: value of 3 hr
Experimental: Form I crystal obtained in Example 1, Form II crystal obtained in Example 2 and amorphous compound A obtained in Production Example 1 (each 50 mg) were suspended in 0.5% aqueous Tween80 solution (20 mL), sonicated, aqueous 0.5% Tween80 solution (180 mL) was added and the mixture was stirred at 37° C.
The solubility was measured by HPLC under the same conditions (isocratic method using acetonitrile/5 mmol/L ammonium hydrogen carbonate (pH 8.0) (27:73) for mobile phase) as in Experimental Example 1 at the time points of 0.5 hr, 1 hr, 2 hr, 3 hr, 4 hr, 5 hr, and 6 hr from the start of stirring. As a result, amorphous compound A reached near saturation at about 0.5 hr, Form I crystal reached near saturation at about 1 hr and Form II crystal reached near saturation at about 2 hr. Therefore, the value of 3 hr was taken as the solubility. The results are shown in Table 11 below together with the results of the following Experimental Example 3.

[3] = Dissolution rate (disc, Paddle Method); assay type: physicochemical; details: 100 mg disc (diameter 12 mm), 0.5% aqueous Tween80 solution 900 mL, 37° C., Paddle Method 50 rpm
Experimental: Form I crystal obtained in Example 1, Form II crystal obtained in Example 2 and amorphous compound A obtained in Production Example 1 (each 100 mg) were compression molded by a tableting machine for IR measurement having a metal mold pre-treated with magnesium stearate, and formed into discs (diameter 12 mm). Each disc was added to 0.5% aqueous Tween80 solution (900 mL, 37° C.), the concentration was measured every 10 minutes up to 1 hr, and every 1 hour after 1 hr up to 3 hr, by HPLC under the same conditions as in Experimental Example 1 (isocratic method using acetonitrile/5 mmol/L ammonium hydrogen carbonate (pH 8.0) (27:73) for mobile phase) while maintaining the temperature at 37° C. according to the dissolution test apparatus Paddle Method (50 rpm), and each dissolution rate was calculated. The results are shown in Table 11 below together with the results of the above-mentioned Experimental Example 2.

Dog absorption test = assay type: in vivo; details: 0.3 mg/kg oral administration, average
Experimental: Form I crystal, Form II crystal and amorphous form of compound A were subjected to a dog absorption test under the following conditions.
sample: except for amorphous form, samples of Form I crystal and Form II crystal sieved to have a particle size of 20 to 63 μm by wet classification (two kinds of sieves and flowing water were used) were used.
Preparation method: 25 mL of water was added to a sample (3 g), and the mixture was gently pulverized in a mortar, classified under pressurization, and draught-dried. As amorphous form, a sample pulverized in agate mortar was used.
method: 9 dogs, 3×3 crossover, 0.3 mg/kg oral administration

Photostability test = assay type: physicochemical; details: xenon lamp 18 million Lxs, exposed to light for 8 hr
Experimental: Form I crystal, Form II crystal and amorphous form of compound A were subjected to a photostability test under the following conditions. The results are shown in FIG. 17. light source: xenon lamp 18 million Lxs
conditions: sample (6 mg) was weighed in a transparent sample bottle, and exposed to light for 8 hr.
HPLC conditions: same as in Experimental Example 1

Sequence of PDE9 (O76083 whole entry): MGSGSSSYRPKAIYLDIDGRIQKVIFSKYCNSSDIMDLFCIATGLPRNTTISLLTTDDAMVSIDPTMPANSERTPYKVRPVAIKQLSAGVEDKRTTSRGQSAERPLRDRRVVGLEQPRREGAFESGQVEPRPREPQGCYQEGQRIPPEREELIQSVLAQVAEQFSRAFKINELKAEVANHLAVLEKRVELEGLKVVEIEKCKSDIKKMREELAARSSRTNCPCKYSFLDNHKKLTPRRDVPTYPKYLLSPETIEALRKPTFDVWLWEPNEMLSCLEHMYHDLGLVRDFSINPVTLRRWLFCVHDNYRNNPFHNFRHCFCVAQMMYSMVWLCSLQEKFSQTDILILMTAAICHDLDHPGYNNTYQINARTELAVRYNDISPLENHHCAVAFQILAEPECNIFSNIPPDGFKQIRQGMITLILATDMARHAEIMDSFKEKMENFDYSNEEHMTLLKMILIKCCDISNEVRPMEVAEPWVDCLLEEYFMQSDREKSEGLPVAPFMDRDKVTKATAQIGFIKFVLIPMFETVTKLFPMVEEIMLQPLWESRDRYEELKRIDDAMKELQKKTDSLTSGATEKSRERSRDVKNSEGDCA

color of sample ([1]; heated at 100° C.) | amount of the decomposition product (decarboxylation substance of compound A) ([1]; heated at 100° C.) | color of sample ([1]; heated at 200° C.) | amount of the decomposition product (decarboxylation substance of compound A) ([1]; heated at 200° C.) | solubility [2] [µg/mL] | dissolution rate [3] [µg/mL/min] | AUC0-t (Dog absorption test) [ng·h/mL] | AUCinf (Dog absorption test) [ng·h/mL] | Cmax (Dog absorption test) [ng/mL] | MRT (Dog absorption test) [h] | T1/2 (Dog absorption test) [h] | Tmax (Dog absorption test) [h] | time at which near saturation was reached [2] | photostability (Photostability test) | SMILES | also measured
– | – | – | – | – | – | – | – | – | – | – | – | – | – | Cc1c(C(=O)O)sc2nc(Cc3ccc(Cl)c(Cl)c3)[nH]c(=O)c12 [Compound A, 2-(3,4-dichlorobenzyl)-5-methyl-4-oxo-3,4-dihydrothieno[2,3-d]pyrimidine-6-carboxylic acid] | PDE9 inhibitory action (PDE9): high PDE9 inhibitory action; PDE5 inhibitory action (PDE5): mild PDE5 inhibitory action
slight brown | 0.006%, | pale-brown | 3.42%, | 37 (≈ 100 µM) | 0.0052 | 62.9 | 63.4 | 10.3 | 6.31 | 3.05 | 3.78 | – | – | Cc1c(C(=O)O)sc2nc(Cc3ccc(Cl)c(Cl)c3)[nH]c(=O)c12 [Amorphous form, 2-(3,4-dichlorobenzyl)-5-methyl-4-oxo-3,4-dihydrothieno[2,3-d]pyrimidine-6-carboxylic acid] | time at which near saturation was reached ([2]; listed as amorphous compound A): about 0.5 hr; impurity after light exposure (Photostability test; HPLC): exceeding 0.2%
white | 0% | slight brown | 0.05%, | 15 (≈ 40.6 µM) | 0.0017 | 64.6 | 65.6 | 9.1 | – | – | – | about 1 hr | comparatively stable | Cc1c(C(=O)O)sc2nc(Cc3ccc(Cl)c(Cl)c3)[nH]c(=O)c12 [Form I crystal, 2-(3,4-dichlorobenzyl)-5-methyl-4-oxo-3,4-dihydrothieno[2,3-d]pyrimidine-6-carboxylic acid] | half-life (Dog absorption test; in vivo, po, 0.3 mg/kg): 3.5 h; MRT (Dog absorption test; in vivo, po, 0.3 mg/kg, read-out: MRT): 6.73 h; Tmax (Dog absorption test; in vivo, po, 0.3 mg/kg, read-out: Tmax): 3.06 h
white | 0% | slight brown | 0.07%, | 10 (≈ 27.1 µM) | 0.0011 | 24.2 | 24.2 | 3.7 | 6.89 | 3.32 | 3.44 | about 2 hr | comparatively stable | Cc1c(C(=O)O)sc2nc(Cc3ccc(Cl)c(Cl)c3)[nH]c(=O)c12 [Form II crystal, 2-(3,4-dichlorobenzyl)-5-methyl-4-oxo-3,4-dihydrothieno[2,3-d]pyrimidine-6-carboxylic acid] | –
